Experimental data reported in US10954219B2, “1,3-benzodioxole derivative” (DAIICHI SANKYO COMPANY, LIMITED, priority 2014, dated 2021).

How the values were obtained:
PRC2-EZH1 (WT EZH1) = PRC2-EZH1 (WT EZH1) (Homo sapiens, UniProt Q92800); assay: EZH1 methyltransferase inhibitory activity evaluation
Description: EZH1 Methyltransferase Inhibitory Activity Evaluation
(§1) Then, the residual radioactivity was measured using TopCount NXT HTS (PerkinElmer, Inc., model C384V01).

PRC2-EZH2 (WT EZH2) = target: T1, PRC2-EZH2 (WT EZH2) (Homo sapiens, UniProt Q15910); assay: EZH2 methyltransferase inhibitory activity evaluation; format: biochemical; settings: PRC2-EZH2, biotin-H3 peptide, 3H-SAM, 2 hours
T1 construct: made in house
T1 sequence (Q15910 whole entry): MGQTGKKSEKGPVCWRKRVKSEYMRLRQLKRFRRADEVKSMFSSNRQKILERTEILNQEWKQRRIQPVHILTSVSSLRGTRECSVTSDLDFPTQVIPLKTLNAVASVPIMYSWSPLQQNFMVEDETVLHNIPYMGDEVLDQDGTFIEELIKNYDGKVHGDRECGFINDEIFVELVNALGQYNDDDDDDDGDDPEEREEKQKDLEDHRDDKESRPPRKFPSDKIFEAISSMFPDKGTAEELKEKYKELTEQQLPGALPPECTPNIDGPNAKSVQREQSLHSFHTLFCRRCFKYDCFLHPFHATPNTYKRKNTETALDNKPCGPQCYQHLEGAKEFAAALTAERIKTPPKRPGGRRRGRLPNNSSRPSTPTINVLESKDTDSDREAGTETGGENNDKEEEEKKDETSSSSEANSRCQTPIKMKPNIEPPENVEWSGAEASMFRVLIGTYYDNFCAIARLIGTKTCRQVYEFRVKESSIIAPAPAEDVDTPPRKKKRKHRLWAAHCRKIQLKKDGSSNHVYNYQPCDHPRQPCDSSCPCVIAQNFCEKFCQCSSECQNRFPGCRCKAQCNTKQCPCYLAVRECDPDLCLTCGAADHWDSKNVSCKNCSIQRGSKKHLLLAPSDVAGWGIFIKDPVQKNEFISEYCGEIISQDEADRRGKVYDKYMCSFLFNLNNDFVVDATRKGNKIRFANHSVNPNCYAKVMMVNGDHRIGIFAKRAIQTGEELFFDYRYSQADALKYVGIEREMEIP
T1 sequence (O75530 whole entry partner): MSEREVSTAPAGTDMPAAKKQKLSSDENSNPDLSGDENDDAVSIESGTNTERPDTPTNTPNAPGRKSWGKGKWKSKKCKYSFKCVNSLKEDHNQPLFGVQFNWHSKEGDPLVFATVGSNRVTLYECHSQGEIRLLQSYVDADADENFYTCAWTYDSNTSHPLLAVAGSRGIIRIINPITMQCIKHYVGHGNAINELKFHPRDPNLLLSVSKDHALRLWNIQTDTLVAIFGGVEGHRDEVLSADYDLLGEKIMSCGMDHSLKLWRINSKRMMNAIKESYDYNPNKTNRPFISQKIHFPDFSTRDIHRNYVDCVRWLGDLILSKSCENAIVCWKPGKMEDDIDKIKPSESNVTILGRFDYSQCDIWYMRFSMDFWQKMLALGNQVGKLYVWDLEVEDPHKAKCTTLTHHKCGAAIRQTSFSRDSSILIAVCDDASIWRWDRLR
T1 sequence (Q15022 whole entry partner): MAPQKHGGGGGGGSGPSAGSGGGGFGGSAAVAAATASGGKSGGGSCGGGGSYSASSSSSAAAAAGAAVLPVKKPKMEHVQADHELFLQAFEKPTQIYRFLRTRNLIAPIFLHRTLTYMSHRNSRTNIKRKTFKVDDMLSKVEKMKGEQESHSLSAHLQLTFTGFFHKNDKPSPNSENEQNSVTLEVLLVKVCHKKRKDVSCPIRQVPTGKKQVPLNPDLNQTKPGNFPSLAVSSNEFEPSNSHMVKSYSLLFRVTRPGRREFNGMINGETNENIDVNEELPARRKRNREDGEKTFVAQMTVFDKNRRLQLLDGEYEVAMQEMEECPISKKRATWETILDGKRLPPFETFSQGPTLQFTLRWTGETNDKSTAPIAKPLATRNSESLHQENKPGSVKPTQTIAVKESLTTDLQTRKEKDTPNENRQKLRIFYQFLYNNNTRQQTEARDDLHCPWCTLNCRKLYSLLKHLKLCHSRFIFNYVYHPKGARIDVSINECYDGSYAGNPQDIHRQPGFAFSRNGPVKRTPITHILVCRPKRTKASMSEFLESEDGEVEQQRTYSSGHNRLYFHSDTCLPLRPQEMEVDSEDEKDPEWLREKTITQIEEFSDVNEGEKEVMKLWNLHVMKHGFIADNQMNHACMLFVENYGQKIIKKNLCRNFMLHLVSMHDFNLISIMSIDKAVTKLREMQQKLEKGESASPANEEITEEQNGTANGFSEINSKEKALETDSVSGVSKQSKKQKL
Description: EZH2 Methyltransferase Inhibitory Activity Evaluation
as §1

[1] = test system: Intracellular H3K27me3 in HCT116 cells; assay: Intracellular H3K27me3 inhibitory activity evaluation; format: cell-based; settings: Homo sapiens, HCT-116, 72 h, 3 days, AlphaLISA, read-out: Test Example 3 H3K27me3 inhibition (HCT116) IC50
Description: The HCT116 cells were purchased from American Type Culture Collection (ATCC). […] Intracellular H3K27me3 was quantified using AlphaLISA H3K27me3 Cellular Detection Kit (PerkinElmer, Inc., #AL722F). The cells thus cultured in each well were washed with 100 μL of PBS. Cell-Histone Lysis buffer diluted 6-fold with PBS was added thereto at 80 μL/well, and the plate was then incubated at room temperature for 15 minutes while shaken. Then, Cell-Histone Extraction buffer was added thereto at 40 μL/well, and the plate was incubated at room temperature for 10 minutes while shaken. […] An AlphaLISA anti-H3K27me3 Acceptor beads/Biotinylated Antibody anti-Histone H3 (C-ter) mixed solution was added thereto at 3.3 μL/well, and the plate was incubated at room temperature for 60 minutes. Then, Streptavidin (SA)-coated Donor beads were added thereto at 3.3 μL/well, and the plate was incubated at room temperature for 30 minutes with the plate shielded from light.

Chain of PRC2-EZH1 (WT EZH1) (Q92800 whole entry): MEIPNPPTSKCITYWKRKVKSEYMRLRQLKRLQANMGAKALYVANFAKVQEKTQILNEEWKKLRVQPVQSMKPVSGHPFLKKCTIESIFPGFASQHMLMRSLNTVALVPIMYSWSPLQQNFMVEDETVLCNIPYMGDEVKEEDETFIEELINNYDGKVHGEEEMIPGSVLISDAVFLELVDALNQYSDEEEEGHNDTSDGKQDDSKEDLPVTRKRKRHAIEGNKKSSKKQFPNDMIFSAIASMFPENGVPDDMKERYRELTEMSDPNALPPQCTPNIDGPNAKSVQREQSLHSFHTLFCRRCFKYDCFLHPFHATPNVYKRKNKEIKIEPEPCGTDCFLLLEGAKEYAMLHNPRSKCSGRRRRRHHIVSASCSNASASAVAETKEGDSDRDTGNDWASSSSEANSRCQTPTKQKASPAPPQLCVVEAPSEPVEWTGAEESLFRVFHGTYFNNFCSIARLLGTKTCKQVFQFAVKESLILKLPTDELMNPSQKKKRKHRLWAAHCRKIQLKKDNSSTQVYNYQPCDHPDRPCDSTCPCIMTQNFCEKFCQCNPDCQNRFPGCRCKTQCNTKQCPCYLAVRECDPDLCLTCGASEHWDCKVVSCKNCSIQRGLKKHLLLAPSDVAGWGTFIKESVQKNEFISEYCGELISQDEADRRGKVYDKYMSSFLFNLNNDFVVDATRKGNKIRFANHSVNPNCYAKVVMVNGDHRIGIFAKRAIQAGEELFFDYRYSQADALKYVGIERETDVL
Chain of PRC2-EZH1 (WT EZH1) (O75530 whole entry partner): as the sequence (O75530 whole entry partner) above
Chain of PRC2-EZH1 (WT EZH1) (Q15022 whole entry partner): as the sequence (Q15022 whole entry partner) above
Chain of PRC2-EZH1 (WT EZH1) (Q09028 whole entry partner): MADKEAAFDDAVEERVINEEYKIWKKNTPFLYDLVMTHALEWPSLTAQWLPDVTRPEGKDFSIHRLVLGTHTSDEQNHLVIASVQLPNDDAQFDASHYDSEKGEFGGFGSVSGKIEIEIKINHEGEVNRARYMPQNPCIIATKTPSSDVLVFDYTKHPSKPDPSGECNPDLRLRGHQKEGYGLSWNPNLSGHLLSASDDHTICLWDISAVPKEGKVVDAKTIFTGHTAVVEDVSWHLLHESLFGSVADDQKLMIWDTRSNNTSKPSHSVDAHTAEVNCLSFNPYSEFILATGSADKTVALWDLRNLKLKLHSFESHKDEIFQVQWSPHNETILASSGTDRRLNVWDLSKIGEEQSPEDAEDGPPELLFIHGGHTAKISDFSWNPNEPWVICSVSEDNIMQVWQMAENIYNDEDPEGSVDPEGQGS
Chain of PRC2-EZH1 (WT EZH1) (Q6ZN18 whole entry partner): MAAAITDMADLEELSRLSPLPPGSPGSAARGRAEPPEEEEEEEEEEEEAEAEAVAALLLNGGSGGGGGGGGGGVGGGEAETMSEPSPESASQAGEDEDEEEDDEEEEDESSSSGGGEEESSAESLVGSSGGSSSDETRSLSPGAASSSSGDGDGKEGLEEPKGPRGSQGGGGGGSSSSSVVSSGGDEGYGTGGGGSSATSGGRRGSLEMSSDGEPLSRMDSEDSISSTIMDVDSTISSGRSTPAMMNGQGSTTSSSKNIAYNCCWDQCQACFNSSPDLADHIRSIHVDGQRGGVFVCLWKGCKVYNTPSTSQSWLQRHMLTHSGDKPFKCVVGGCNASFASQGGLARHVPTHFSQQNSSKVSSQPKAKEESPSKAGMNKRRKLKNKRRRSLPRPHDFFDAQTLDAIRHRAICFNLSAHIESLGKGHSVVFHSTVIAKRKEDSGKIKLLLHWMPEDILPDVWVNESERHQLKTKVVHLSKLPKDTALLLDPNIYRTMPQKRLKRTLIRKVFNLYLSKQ

Row | SMILES | IC50 (PRC2-EZH1 (WT EZH1)) [µM] | IC50 (PRC2-EZH2 (WT EZH2)) [µM] | IC50 [1] [µM]
1 | Cc1cc(C)c(CNC(=O)c2cc(Br)c3c(c2C)OC(C)([C@H]2CC[C@H](N)CC2)O3)c(=O)[nH]1 (relative stereo) [Example 13, 2-(trans-4-Aminocyclohexyl)-7-bromo-N-[(4,6-dimethyl-2-oxo-1,2-dihydropyridin-3-yl)methyl]-2,4-dimethyl-1,3-benzodioxole-5-carboxamide] | 0.021 | 0.016 | 0.0059
2 | COc1cc(C)[nH]c(=O)c1CNC(=O)c1cc(Br)c2c(c1C)OC(C)([C@H]1CC[C@H](N(C)C)CC1)O2 (relative stereo) [Example 16, 7-Bromo-2-[trans-4-(dimethylamino)cyclohexyl]-N-[(4-methoxy-6-methyl-2-oxo-1,2-dihydropyridin-3-yl)methyl]-2,4-dimethyl-1,3-benzodioxole-5-carboxamide] | 0.0094 | 0.012 | 0.0014
3 | CCc1cc(C)[nH]c(=O)c1CNC(=O)c1cc(Br)c2c(c1C)OC(C)([C@H]1CC[C@H](N(C)C)CC1)O2 (relative stereo) [Example 17, 7-Bromo-2-[trans-4-(dimethylamino)cyclohexyl]-N-[(4-ethyl-6-methyl-2-oxo-1,2-dihydropyridin-3-yl)methyl]-2,4-dimethyl-1,3-benzodioxole-5-carboxamide] | 0.017 | 0.023 | 0.0012
4 | CCCc1cc(C)[nH]c(=O)c1CNC(=O)c1cc(Br)c2c(c1C)OC(C)([C@H]1CC[C@H](N(C)C)CC1)O2 (relative stereo) [Example 18, 7-Bromo-2-[trans-4-(dimethylamino)cyclohexyl]-2,4-dimethyl-N-[(6-methyl-2-oxo-4-propyl-1,2-dihydropyridin-3-yl)methyl]-1,3-benzodioxole-5-carboxamide] | 0.019 | 0.023 | 0.0058
5 | Cc1cc(C)c(CNC(=O)c2cc(Br)c3c(c2C)OC(C)([C@H]2CC[C@@H](N(C)C)CC2)O3)c(=O)[nH]1 (relative stereo) [Example 41, 7-Bromo-2-[cis-4-(dimethylamino)cyclohexyl]-N-[(4,6-dimethyl-2-oxo-1,2-dihydropyridin-3-yl)methyl]-2,4-dimethyl-1,3-benzodioxole-5-carboxamide] |  |  | 0.011
6 | Cc1cc(C)c(CNC(=O)c2cc(Br)c3c(c2C)OC(C)(C2CCOCC2)O3)c(=O)[nH]1 (stereo not drawn) [Example 2, 7-Bromo-N-[(4,6-dimethyl-2-oxo-1,2-dihydropyridin-3-yl)methyl]-2,4-dimethyl-2-(tetrahydropyran-4-yl)-1,3-benzodioxole-5-carboxamide] |  | 0.022 | 0.009
7 | CCCN1CCC([C@@]2(C)Oc3c(Br)cc(C(=O)NCc4c(C)cc(C)[nH]c4=O)c(C)c3O2)CC1 [Example 9, (2R)-7-Bromo-N-[(4,6-dimethyl-2-oxo-1,2-dihydropyridin-3-yl)methyl]-2,4-dimethyl-2-(1-propyl-4-piperidyl)-1,3-benzodioxole-5-carboxamide] |  | 0.011 | 0.013
8 | CCS(=O)(=O)N1CCC([C@@]2(C)Oc3c(Br)cc(C(=O)NCc4c(C)cc(C)[nH]c4=O)c(C)c3O2)CC1 [Example 11, (2R)-7-Bromo-N-[(4,6-dimethyl-2-oxo-1,2-dihydropyridin-3-yl)methyl]-2-(1-ethylsulfonyl-4-piperidyl)-2,4-dimethyl-1,3-benzodioxole-5-carboxamide] |  | 0.0091 | 0.0037
9 | Cc1cc(C)c(CNC(=O)c2cc(Br)c3c(c2C)OC(C)([C@@H]2CC[C@@H](N(C)C)CO2)O3)c(=O)[nH]1 (stereo partly drawn) [Example 22, 7-Bromo-2-[(2S,5R)-5-(dimethylamino)tetrahydropyran-2-yl]-N-[(4,6-dimethyl-2-oxo-1,2-dihydropyridin-3-yl)methyl]-2,4-dimethyl-1,3-benzodioxole-5-carboxamide] |  | 0.014 | 0.0016
